Where two headings read alike, the source gives them in different places.
Experiments:
Tyk2 = target: T1, Tyk2 (Homo sapiens, UniProt P29597); experiment: Biochemical Tyk2 kinase assay (LanthaScreen); conditions: for Ki: read-out: Tyk 2 (pKi) (converted)
T1 construct: GST; purchased Life Technologies
How it was run: (§1)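 TR-FRET read-out: terbium anti-pSTAT1 (pTyr701) antibody, 2 nM, with 10 mM EDTA quench, emission ratio 520/495 nm. GST-JAK phosphorylates GFP-STAT1 peptide for 1 h at ambient temperature after 1 h compound pre-incubation. pIC50 from dose-response converted to pKi by Cheng-Prusoff.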

[1] = test system: oxazolone-induced colitis; experiment: Mouse model of oxazolone-induced colitis; assay type: in vivo
Procedure: Oxazolone-induced colitis is an experimental model that has a histological resemblance to human ulcerative colitis (Heller et al. Immunology, 2002, 17, 629-638). Adult BALB/C mice from Harlan were used in the assay. On day 1, animals were lightly anesthetized with isoflurane and the hairs between the shoulder were carefully removed before oxazolone (4%, 150 μL, 4:1 acetone:olive oil formulation) or vehicle solution was slowly applied for skin sensitization. Seven days after skin sensitization, the mice were fasted around 6 hours prior, anesthetized with ketamine/xylazine injection, and a 1 mL syringe equipped with a 3.5-F catheter, filled with oxazolone solution, was inserted carefully about 4 cm into the colon of the mouse. Following insertion, 50 μL of the oxazolone solution (0.8% in 1:1 ethanol:water formulation) was injected very slowly (over 30 sec using an injection pump) into the colon. Drug treatment (PO, QD or BID or TID) or vehicle was initiated a day prior to the oxazolone intrarectal (IR) challenge. Two-day post oxazolone intrarectal challenge, the disease was assessed by treatment-blinded experimenters for each mouse according to the criteria score: stool consistency score (0, normal; 2, loose; 4, diarrhea), gross bleeding score (0, absence; 2, blood tinged; 4, presence); Combined stool score endpoint=stool consistency score+stool blood score.
Select compounds were tested in the assay.

[2] = test system: IL-2 stimulated pSTAT5 in Tall-1 T cells; experiment: Cellular JAK3 potency assay: inhibition of IL-2 stimulated pSTAT5 in Tall-1 T cells; assay type: cell-based, human; conditions: for IC50: Homo sapiens, read-out: Tall-1 (pIC50) (converted)
How it was run: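 Tall-1 human T cells were preincubated with compound for 1 h at 37° C, then stimulated with IL-2 (300 ng/ml final) for 30 min. STAT5 phosphorylation in lysates was read by AlphaLisa bead emission, and IC50 from inhibition curves is given as pIC50 (mean±SD).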

JAK3 = target: T2, JAK3 (Homo sapiens, UniProt P52333); experiment: Biochemical JAK3 kinase assay (LanthaScreen); set-up: GST; purchased Life Technologies; conditions: for Ki: read-out: JAK 3 (pKi) (converted)
T2 sequence (P52333 1-1124): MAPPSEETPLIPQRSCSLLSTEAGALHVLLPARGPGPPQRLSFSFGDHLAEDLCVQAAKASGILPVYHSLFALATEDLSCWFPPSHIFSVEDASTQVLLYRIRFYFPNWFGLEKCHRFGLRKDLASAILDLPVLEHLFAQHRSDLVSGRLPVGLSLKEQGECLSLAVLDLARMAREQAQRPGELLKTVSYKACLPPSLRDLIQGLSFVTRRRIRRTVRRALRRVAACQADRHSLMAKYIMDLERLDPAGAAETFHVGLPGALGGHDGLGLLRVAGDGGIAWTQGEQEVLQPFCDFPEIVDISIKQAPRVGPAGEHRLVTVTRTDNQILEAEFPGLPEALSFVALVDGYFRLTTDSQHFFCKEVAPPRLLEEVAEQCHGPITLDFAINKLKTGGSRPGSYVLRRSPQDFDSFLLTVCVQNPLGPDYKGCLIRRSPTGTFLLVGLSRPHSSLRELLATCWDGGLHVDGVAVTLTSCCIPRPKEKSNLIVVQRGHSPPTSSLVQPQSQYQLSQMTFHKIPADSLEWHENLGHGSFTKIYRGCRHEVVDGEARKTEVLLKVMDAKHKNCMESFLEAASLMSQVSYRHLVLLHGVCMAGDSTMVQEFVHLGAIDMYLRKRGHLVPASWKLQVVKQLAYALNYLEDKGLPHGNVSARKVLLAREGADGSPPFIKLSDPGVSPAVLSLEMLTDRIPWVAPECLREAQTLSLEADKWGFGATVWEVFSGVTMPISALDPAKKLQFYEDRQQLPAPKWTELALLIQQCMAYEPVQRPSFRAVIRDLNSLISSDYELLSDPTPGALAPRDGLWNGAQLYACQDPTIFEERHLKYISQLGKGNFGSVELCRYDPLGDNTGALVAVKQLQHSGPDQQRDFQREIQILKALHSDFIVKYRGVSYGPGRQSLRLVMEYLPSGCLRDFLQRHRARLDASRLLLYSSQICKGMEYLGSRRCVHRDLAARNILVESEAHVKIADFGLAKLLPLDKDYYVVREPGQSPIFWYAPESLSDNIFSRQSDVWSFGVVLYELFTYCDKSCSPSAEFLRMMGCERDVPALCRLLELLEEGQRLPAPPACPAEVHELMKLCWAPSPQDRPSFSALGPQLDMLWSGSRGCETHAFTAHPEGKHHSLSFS
How it was run: as §1

JAK1 = target: T3, JAK1 (Homo sapiens, UniProt P23458); experiment: Biochemical JAK1 kinase assay (LanthaScreen); conditions: for Ki: read-out: JAK 1 (pKi) (converted)
T3 construct: GST; purchased Life Technologies
How it was run: as §1

JAK2 = target: T4, JAK2 (Homo sapiens, UniProt O60674); experiment: Biochemical JAK2 kinase assay (LanthaScreen); conditions: for Ki: read-out: JAK 2 (pKi) (converted)
T4 construct: GST; purchased Life Technologies
How it was run: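 pKi values derive from pIC50 via Cheng-Prusoff, with IC50 from a 4-parameter fit of percent-inhibition TR-FRET data using Tb-anti-pSTAT1 (pTyr701) detection. Compound, GST-JAK2 and GFP-STAT1 substrate were pre-incubated 1 h, then ATP started a 1 h ambient reaction (HEPES pH 7.5, 10 mM MgCl2, 1% DMSO).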

[3] = selectivity: difference of pKi JAK3 and pKi JAK1
[4] = IL-2 stimulated pSTAT5 in Tall-1 T cells
[5] = IL-2 stimulated pSTAT5, Tall-1 T cells
[6] = selectivity JAK3 over JAK1, difference of pKi

T4 sequence (O60674 whole entry): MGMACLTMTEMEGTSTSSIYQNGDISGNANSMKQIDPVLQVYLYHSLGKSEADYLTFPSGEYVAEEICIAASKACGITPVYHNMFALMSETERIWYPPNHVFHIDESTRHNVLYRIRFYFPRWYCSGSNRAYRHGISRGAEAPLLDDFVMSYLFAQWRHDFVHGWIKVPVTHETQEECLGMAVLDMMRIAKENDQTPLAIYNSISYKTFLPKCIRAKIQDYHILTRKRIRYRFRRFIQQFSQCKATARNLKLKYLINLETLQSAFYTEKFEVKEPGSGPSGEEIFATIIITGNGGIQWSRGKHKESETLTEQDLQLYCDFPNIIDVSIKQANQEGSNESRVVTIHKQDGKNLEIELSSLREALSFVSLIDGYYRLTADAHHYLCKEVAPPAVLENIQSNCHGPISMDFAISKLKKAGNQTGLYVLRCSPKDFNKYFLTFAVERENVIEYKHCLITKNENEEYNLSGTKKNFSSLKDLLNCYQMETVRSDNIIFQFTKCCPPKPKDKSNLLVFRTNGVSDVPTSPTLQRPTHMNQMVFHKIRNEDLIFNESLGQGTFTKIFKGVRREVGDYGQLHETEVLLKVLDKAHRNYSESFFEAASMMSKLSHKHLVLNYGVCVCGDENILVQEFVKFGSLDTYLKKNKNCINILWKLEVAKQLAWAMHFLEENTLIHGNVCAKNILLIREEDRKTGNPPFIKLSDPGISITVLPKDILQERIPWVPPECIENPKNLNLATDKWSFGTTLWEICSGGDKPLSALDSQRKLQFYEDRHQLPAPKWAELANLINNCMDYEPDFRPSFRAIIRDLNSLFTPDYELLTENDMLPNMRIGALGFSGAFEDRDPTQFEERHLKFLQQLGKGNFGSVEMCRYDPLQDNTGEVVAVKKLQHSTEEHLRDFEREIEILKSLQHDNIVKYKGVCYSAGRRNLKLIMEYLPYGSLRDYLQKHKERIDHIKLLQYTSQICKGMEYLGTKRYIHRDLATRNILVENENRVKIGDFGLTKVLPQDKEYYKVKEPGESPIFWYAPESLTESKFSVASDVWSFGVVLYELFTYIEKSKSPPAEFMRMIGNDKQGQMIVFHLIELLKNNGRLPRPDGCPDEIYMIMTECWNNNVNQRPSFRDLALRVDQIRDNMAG
T3 sequence (P23458 whole entry): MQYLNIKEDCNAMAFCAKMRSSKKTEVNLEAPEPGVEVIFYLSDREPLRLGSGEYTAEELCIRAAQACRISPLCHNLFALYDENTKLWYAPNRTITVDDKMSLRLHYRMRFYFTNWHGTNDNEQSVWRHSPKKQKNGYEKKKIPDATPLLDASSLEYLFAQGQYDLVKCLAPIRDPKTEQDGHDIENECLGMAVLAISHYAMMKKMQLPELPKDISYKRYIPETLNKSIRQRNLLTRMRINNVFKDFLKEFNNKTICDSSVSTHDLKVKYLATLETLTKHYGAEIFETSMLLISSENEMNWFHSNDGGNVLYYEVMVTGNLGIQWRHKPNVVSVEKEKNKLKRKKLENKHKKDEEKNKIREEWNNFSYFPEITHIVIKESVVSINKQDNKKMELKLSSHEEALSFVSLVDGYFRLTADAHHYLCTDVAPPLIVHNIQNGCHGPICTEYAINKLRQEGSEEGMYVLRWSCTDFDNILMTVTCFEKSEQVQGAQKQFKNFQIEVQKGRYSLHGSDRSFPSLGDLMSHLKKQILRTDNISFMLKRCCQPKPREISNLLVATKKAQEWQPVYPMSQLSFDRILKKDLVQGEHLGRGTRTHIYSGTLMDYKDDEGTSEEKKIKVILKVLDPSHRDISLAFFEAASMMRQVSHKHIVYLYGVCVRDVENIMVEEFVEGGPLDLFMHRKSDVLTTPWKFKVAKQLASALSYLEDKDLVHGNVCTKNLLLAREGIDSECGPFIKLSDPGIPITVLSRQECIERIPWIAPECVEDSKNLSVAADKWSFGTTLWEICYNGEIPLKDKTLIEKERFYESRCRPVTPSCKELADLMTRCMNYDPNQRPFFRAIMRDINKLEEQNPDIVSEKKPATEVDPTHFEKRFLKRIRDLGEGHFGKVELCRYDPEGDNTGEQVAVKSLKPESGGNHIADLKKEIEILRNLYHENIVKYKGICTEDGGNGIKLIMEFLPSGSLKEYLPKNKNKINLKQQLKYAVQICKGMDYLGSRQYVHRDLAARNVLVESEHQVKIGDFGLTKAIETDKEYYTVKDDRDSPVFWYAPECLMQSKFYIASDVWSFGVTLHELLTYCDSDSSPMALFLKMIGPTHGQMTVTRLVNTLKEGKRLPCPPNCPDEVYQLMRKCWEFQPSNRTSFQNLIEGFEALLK
T1 sequence (P29597 whole entry): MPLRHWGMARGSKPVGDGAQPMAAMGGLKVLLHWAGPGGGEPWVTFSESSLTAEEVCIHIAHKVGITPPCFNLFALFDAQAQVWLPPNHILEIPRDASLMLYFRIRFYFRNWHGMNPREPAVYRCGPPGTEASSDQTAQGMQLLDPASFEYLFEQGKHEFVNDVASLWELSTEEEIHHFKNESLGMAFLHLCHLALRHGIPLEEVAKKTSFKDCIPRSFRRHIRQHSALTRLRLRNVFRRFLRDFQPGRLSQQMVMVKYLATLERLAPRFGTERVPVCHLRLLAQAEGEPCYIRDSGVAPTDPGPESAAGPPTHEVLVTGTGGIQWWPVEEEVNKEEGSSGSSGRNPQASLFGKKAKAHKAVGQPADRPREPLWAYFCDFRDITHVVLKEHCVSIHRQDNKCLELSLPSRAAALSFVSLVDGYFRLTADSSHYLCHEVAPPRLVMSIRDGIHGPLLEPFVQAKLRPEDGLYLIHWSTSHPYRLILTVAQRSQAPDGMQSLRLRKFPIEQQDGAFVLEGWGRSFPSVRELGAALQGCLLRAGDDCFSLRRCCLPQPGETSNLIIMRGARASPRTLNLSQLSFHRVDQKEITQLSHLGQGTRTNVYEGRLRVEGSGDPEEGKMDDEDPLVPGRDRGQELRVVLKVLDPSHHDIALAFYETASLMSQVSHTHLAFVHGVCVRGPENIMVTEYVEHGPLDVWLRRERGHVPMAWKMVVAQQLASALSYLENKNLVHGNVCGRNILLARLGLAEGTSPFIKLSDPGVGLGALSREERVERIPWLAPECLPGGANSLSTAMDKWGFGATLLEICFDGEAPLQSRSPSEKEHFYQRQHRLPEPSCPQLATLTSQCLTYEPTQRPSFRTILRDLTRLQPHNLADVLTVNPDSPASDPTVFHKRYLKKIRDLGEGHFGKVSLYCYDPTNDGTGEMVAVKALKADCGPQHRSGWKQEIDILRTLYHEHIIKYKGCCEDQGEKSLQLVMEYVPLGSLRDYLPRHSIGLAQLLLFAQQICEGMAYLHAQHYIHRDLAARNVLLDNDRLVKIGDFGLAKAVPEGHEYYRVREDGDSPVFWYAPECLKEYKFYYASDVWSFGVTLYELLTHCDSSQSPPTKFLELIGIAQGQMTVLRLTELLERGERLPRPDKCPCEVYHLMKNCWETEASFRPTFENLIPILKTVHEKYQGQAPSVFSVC

Structure (SMILES)	Ki (Tyk2)	combined stool score endpoint as compared with vehicle treated animals ([1]; 1 and 10 mg/kg only (PO, BID))	IC50 ([2]; TALL-1, IL-2 stimulated pSTAT5 in Tall-1 T cells)	Ki (JAK3)	JAK3 (pKi)-JAK1 (pKi) (JAK3; [3])	Ki (JAK1)	Ki (JAK2)	combined stool score endpoint as compared with vehicle treated animals ([1]; 3 mg/kg (PO, BID))	Tall-1 (pIC50) [2, 4]	JAK 3 (pKi) (JAK3)	JAK 1 (pKi) (JAK1)	Tyk 2 (pKi) (Tyk2)	JAK 2 (pKi) (JAK2)	Tall-1 (pIC50) [2, 5]	JAK3 (pKi)-JAK1 (pKi) (JAK3; [6])	IC50 ([2]; TALL-1, IL-2 stimulated pSTAT5, Tall-1 T cells)
COC1(COc2cc(-c3ccc(O)c(F)c3)cc3[nH]ncc23)CN(C(=O)/C=C/CN(C)C)C1 [Compound 3-74]	> 100 nM	statistically significant decrease	< 31.6 nM	< 0.1 nM	A (a value of 3 or above)	> 100 nM	> 100 nM	–	–	–	–	–	–	–	–	–
CN(C)C/C=C/C(=O)N1CC(Oc2cc(-c3ccc(O)cc3)cc3[nH]ncc23)(C(F)F)C1 [Compound 5-10]	–	–	–	–	A (a value of 3 or above)	–	–	statistically significant decrease	B (a pIC50 value between 6.7 (included) and 7.5 (IC50 between 200 nM and 32 nM))	B (a pKi value between 9 and 10 (Ki between 1 nM and 0.1 nM))	E (a pKi value of 7 or below (Ki of 100 nM or above))	–	–	–	–	–
CN(C)C/C=C/C(=O)N1CC(C#N)(COc2cc(-c3ccc(O)cc3)cc3[nH]ncc23)C1 [Compound 3-19]	–	–	–	–	A (a value of 3 or above)	–	–	–	B (a pIC50 value between 6.7 (included) and 7.5 (IC50 between 200 nM and 32 nM))	B (a pKi value between 9 and 10 (Ki between 1 nM and 0.1 nM))	E (a pKi value of 7 or below (Ki of 100 nM or above))	E (a pKi value of 7 or below (Ki of 100 nM or above))	E (a pKi value of 7 or below (Ki of 100 nM or above))	–	–	–
C=CC(=O)N1CCCC(Oc2cc(-c3ccc(O)c(Cl)c3)cc3[nH]ncc23)C1 (stereo not drawn) [Compound 8-3]	–	–	–	–	–	–	–	–	–	B (a pKi value between 9 and 10 (Ki between 1 nM and 0.1 nM))	E (a pKi value of 7 or below (Ki of 100 nM or above))	E (a pKi value of 7 or below (Ki of 100 nM or above))	D (a pKi value between 7 and 8 (Ki between 100 nM and 10 nM))	A (a pIC50 value≥7.5 (IC50≤32 nM))	A (a value of 3 or above)	–
C=CC(=O)N1CC(Nc2cc(-c3ccc(O)cc3)cc3[nH]ncc23)C1 [Compound 5-7]	–	–	–	–	A (a value of 3 or above)	–	–	–	B (a pIC50 value between 6.7 (included) and 7.5 (IC50 between 200 nM and 32 nM))	A (a pKi value≥10 (Ki≤0.1 nM))	E (a pKi value of 7 or below (Ki of 100 nM or above))	E (a pKi value of 7 or below (Ki of 100 nM or above))	D (a pKi value between 7 and 8 (Ki between 100 nM and 10 nM))	–	–	–
C=CC(=O)N1CC2(CC(Oc3nc(-c4ccc(O)c(F)c4)nc4[nH]ncc34)C2)C1 [Compound 15-10]	–	–	–	–	–	–	–	–	–	A (a pKi value≥10 (Ki≤0.1 nM))	E (a pKi value of 7 or below (Ki of 100 nM or above))	E (a pKi value of 7 or below (Ki of 100 nM or above))	E (a pKi value of 7 or below (Ki of 100 nM or above))	A (a pIC50 value≥7.5 (IC50≤32 nM))	A (a value of 3 or above)	–
C=CC(=O)N1CCC[C@@H](C(=O)Nc2cc(-c3ccc(O)cc3)cc3[nH]ncc23)[C@H]1C [Compound 12-57]	> 100 nM	–	–	0.1 to 1 nM	–	> 100 nM	10 to 100 nM	–	–	–	–	–	–	–	A (a value of 3 or above)	31.6 to 200 nM
C=CC(=O)N1C2CCC1CC(Nc1cc(-c3ccc(O)cc3)cc3[nH]ncc13)C2 (stereo not drawn) [Compound 9-9]	–	–	–	–	–	–	–	–	–	A (a pKi value≥10 (Ki≤0.1 nM))	D (a pKi value between 7 and 8 (Ki between 100 nM and 10 nM))	D (a pKi value between 7 and 8 (Ki between 100 nM and 10 nM))	C (a pKi value between 8 and 9 (Ki between 10 nM and 1 nM))	A (a pIC50 value≥7.5 (IC50≤32 nM))	B (a value of 2.3 to 3)	–
C=CC(=O)N1CC(OCc2nc(-c3ccc(O)cc3)cc3[nH]ncc23)C1 [Compound 16-5]	–	–	–	–	–	–	–	–	–	A (a pKi value≥10 (Ki≤0.1 nM))	E (a pKi value of 7 or below (Ki of 100 nM or above))	E (a pKi value of 7 or below (Ki of 100 nM or above))	E (a pKi value of 7 or below (Ki of 100 nM or above))	A (a pIC50 value≥7.5 (IC50≤32 nM))	A (a value of 3 or above)	–
C=CC(=O)N1CC(C)(CNc2cc(-c3ccc(O)cc3)cc3[nH]ncc23)C1 [Compound 4-2]	–	–	–	–	B (a value of 2.3 to 3)	–	–	–	B (a pIC50 value between 6.7 (included) and 7.5 (IC50 between 200 nM and 32 nM))	B (a pKi value between 9 and 10 (Ki between 1 nM and 0.1 nM))	D (a pKi value between 7 and 8 (Ki between 100 nM and 10 nM))	E (a pKi value of 7 or below (Ki of 100 nM or above))	D (a pKi value between 7 and 8 (Ki between 100 nM and 10 nM))	–	–	–
